Results: PMC12030627, “Radioiodinated Bicyclic RGD Peptide Derivatives for Enhanced Tumor Accumulation” (Pharmaceuticals, 2025)
Where two headings read alike, the source gives them in different places. Starred links: 1 amine or outer side, 2 acyl side, 3 side chain; linkers in the order of their positions; H or OH if unused. Positions of bridges follow the written chain, without caps; N, C: chain ends. Non-standard residues stand in square brackets, D forms with d. Residues, ends and D or L forms follow the SMILES beside them. *: point of attachment. TBMB = c1c(C[*:1])cc(C[*:3])cc1C[*:2]; Palmitoyl = CCCCCCCCCCCCCCCC(=O)*; Benzoyl(3-I) = O=C(c1cccc(I)c1)*; 4Abz = Nc1ccc(C(=O)O)cc1

Experiments:
[1] = test system: integrin αVβ3 / αVβ5; details: cited from earlier work
Source text: A radiolabeled probe based on this bicyclic peptide, [^125I]bcRGD, was synthesized and shown to selectively accumulate in αVβ3-expressing cancer cells and xenograft models in mice. However, like many l ...

[2] = Albumin binding, size-exclusion spin column elution after incubation with mouse plasma; format: in vitro ADME; details: 37 kBq in 50 μL PBS(–) incubated 37 °C 10 min with 200 μL mouse plasma (male ddY); Sephadex G-50 Fine spin column, 2000 rpm 2 min; γ-counter; eluted/added radioactivity × 100
Description: To assess albumin binding, mouse plasma was obtained by centrifugation of whole blood from male ddY mice (9 weeks old). [^125I]bcRGD, [^125I]bcRGDpal, [^125I]bcRGDiba, or [^125I]bcRGDdimer (37 kBq) in 50 μL PBS(–) was incubated at 37 °C for 10 min with 200 μL of PBS(–), mouse plasma, or human serum albumin (HSA, 45 mg/mL in PBS(–); Wako Pure Chemical Industries, Osaka, Japan). The mixtures were applied to gel filtration spin columns (Sephadex G-50 Fine; Cytiva, Tokyo, Japan), centrifuged (2000 rpm, 2 min), and radioactivity in the eluted fraction was measured with a γ-counter. The high molecular weight fraction was calculated as the elution ratio = (radioactivity in elution)/(added radioactivity) × 100 (%).

[3] = Octanol–water distribution coefficient (log D); format: physicochemical; details: shake-flask 1-octanol/PBS(–) pH 7.4, 1.0 mL each (1:1), 40 kBq, vortexed 2 min, centrifuged 5000 rpm 5 min, radioactivity by γ-counter, mean of n = 4
Description: For log D determination, [^125I]bcRGD, [^125I]bcRGDpal, [^125I]bcRGDiba, or [^125I]bcRGDdimer (40 kBq) was dissolved in 1.0 mL PBS(–) (pH 7.4) and mixed with 1.0 mL 1-octanol (1:1, v/v). The mixture was vortexed for 2 min and centrifuged at 5000 rpm for 5 min. Radioactivity in 0.5 mL of each phase was measured using a γ-counter, and log D values were calculated based on the radioactivity distribution (n = 4).

[4] = Biodistribution in U-87 MG tumor-bearing mice; format: in vivo, BALB/c nu-nu mice; details: mouse, total radioactivity, 2 h post-administration, tumor-bearing mice, comparator value, no method or n printed for this probe
Description: Animal experiments were performed in compliance with institutional animal care regulations, with the study protocol approved by the Experimental Animal Committee of Osaka Medical and Pharmaceutical University (Approval Numbers: 21–76, 22–76, and 23–76). Four-week-old male BALB/c nu-nu mice (Japan SLC, Shizuoka, Japan) were housed under a 12 h light/12 h dark cycle with free access to food and water. Tumor-bearing mice were established by suspending U-87 MG cells (2 × 10^6 cells/mouse) in PBS(–) and subcutaneously injecting 100 μL of the suspension into the right hind leg. For co-implantation models, A549 cells (2 × 10^6 cells/mouse) were suspended in PBS(–) and inoculated (100 μL) into the left hind leg of the same mice already inoculated with U-87 MG cells. Mice with tumor size approximately 10 mm in diameter, 4–5 weeks after inoculation, were used for biodistribution studies. Animals in which either tumor was not viable were excluded from the experiment.
U-87 MG-bearing mice (n = 42, 8–9 weeks old; 22–27 g) were randomly assigned into groups and administered [^125I]bcRGDpal or [^125I]bcRGDiba via intravenous injection (37 kBq in 100 μL of PBS containing 0.1% Tween 80 (PBS-T80)). At 5 min, 30 min, 1 h, 2 h, 6 h, 12 h, or 24 h post-injection, the mice were euthanized (n = 3 per time point). The heart, kidneys, liver, brain, pancreas, spleen, lung, small intestine, large intestine, muscle, skin, stomach, bone, and tumors were excised. Each organ’s weight and radioactivity were measured by a NaI well-type scintillation counter, and the % ID/g was calculated. To investigate the correlation between integrin expression and radioactivity accumulation, biodistribution at 2 h after administration of [^125I]bcRGDpal or [^125I]bcRGDiba was assessed in A549 and U-87 MG co-implantation mice (n = 5) using the same procedure. Additionally, co-implantation mice were injected with [^125I]bcRGDdimer (37 kBq/100 μL PBS-T80) and euthanized at 30 min, 2 h, and 4 h post-injection (n = 4 per time point), and % ID/g values were calculated as described above. The minimum sample size needed for the biodistribution study in U-87 MG-bearing mice was calculated using G Power software version 3.1.9.7. The calculation was based on a two-tailed test, with an effect size of 3.9, a significance level (α) of 0.05, and a statistical power (1 − β) of 0.8. […] The minimum required sample size for the biodistribution study in A549 and U-87 MG co-implantation mice was also calculated to be four animals per group (effect size = 2.5, α = 0.05, 1 − β = 0.8). To guarantee objective results, the experiment was carried out in a blinded manner. Specifically, drug administration and radioactivity measurements were conducted by different investigators to eliminate potential bias.

[5] = molecular target: T1, human serum albumin (human, UniProt P02768 25-609); assay: SEC; [^125I]-peptide (37 kBq in 50 μL PBS(-)) with 200 μL HSA (45 mg/mL in PBS(-)), 37 °C, 10 min; Sephadex G-50 Fine gel filtration spin column, 2000 rpm, 2 min; radioactivity in the eluted high molecular weight fraction as % of that added; details: both partners purified
T1 construct: human serum albumin, 45 mg/mL in PBS(-); also called HSA; source: bought: Wako Pure Chemical Industries

| elution ratio (high molecular weight fraction) with HSA [5] | Molecule | αVβ3/αVβ5 selectivity ratio (ratio of corresponding IC50 values) [1] | also measured |
| --- | --- | --- | --- |
| 60% | {4‑(p-iodophenyl)butyryl}-K((125I)3‑iodobenzoyl)PPPSG[4Abz]SGCHPQ[dC]RGD[dC]-NH2 (linker 10-14-18 via TBMB (inferred)) [[^125I]bcRGDiba] |  |  |
| 80% | Palmitoyl-K((125I)3‑iodobenzoyl)PPPSG[4Abz]SGCHPQ[dC]RGD[dC]-NH2 (linker 10-14-18 via TBMB (inferred)) [[^125I]bcRGDpal] |  |  |

The remaining lines, values behind:

| Molecule | elution ratio (high molecular weight fraction) with HSA [5] | αVβ3/αVβ5 selectivity ratio (ratio of corresponding IC50 values) [1] | also measured |
| --- | --- | --- | --- |
| cilengitide |  | 4.7 |  |
| cyclo-(RGDfK) |  | 0.2 |  |
| CC(=O)N[C@@H](CCCCNC(=O)c1cccc(I)c1)C(=O)N1CCC[C@H]1C(=O)N1CCC[C@H]1C(=O)N1CCC[C@H]1C(=O)N[C@@H](CO)C(=O)NCC(=O)Nc1ccc(C(=O)N[C@@H](CO)C(=O)NCC(=O)N[C@H]2CSCc3cc4cc(c3)CSC[C@@H](NC(=O)[C@H](CCC(N)=O)NC(=O)[C@@H]3CCCN3C(=O)[C@H](Cc3c[nH]cn3)NC2=O)C(=O)N[C@@H](CCCNC(=N)N)C(=O)NCC(=O)N[C@@H](CC(=O)O)C(=O)N[C@@H](C(N)=O)CSC4)cc1 [[^125I]bcRGD, reference compound] (Ac-K(Benzoyl(3-I))PPPSG[4Abz]SGCHPQ[dC]RGD[dC]-NH2; linker 10-14-18 via TBMB) |  |  | Elution rate from size-exclusion resin (high molecular weight fraction), mouse plasma [2]: 2%; logD [3]: -2.02; tissue uptake at 2 h ([4]; U-87 MG tumor, read-out: Tumor-accumulated radioactivity (U-87 MG)): 0.7 %ID/g; tissue uptake at 2 h ([4]; blood, read-out: Blood radioactivity level): 0.3 %ID/g |
